{
  "source": "paper PMC12647918",
  "about": "(Nature Communications, 2025)",
  "key": {"tRNA modifications": {"tested_on": "tRNA modifications", "assay": "Measurement of tRNA modification levels by LC-MS/MS", "assay_type": "cell-based, Human", "conditions": "K562 cells, 50 μM 5-FU"}, "[1]": {"tested_on": "RNA post-transcriptional modification enzymes (PUS1, PUS3, PUS10, TRUB1, TRUB2, DUS3L, TRMT2A, EMG1)", "assay": "Time-resolved SICFA, 5-FU in K562 cells", "assay_type": "cell-based, Human", "conditions": "50 µM 5-FU, from 4 h, further enhanced with prolonged treatment"}, "TYMS [2]": {"molecular_target": "T1, TYMS (Homo sapiens, UniProt P04818)", "T1 sequence (P04818 2-313 limits assumed)": "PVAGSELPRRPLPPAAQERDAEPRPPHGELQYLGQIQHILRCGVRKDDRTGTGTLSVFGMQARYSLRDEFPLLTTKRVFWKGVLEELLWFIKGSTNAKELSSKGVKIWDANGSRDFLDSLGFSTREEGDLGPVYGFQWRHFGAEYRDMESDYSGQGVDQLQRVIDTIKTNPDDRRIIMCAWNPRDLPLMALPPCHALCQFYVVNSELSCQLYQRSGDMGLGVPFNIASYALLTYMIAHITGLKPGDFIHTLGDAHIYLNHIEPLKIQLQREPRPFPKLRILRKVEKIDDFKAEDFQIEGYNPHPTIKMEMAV", "assay": "Time-resolved SICFA, 5-FU in K562 cells", "conditions": "50 µM 5-FU, 30 min, 10% fixative"}, "[3]": {"tested_on": "Methionine synthase (MTR)", "assay": "SICFA of MTX-treated living K562 cells", "assay_type": "cell-based, Human", "conditions": "2 µM MTX, 30 min"}, "[4]": {"tested_on": "C-1-tetrahydrofolate synthase (MTHFD1)", "assay": "SICFA of MTX-treated living K562 cells", "assay_type": "cell-based, Human", "conditions": "2 µM MTX, 30 min"}, "HDAC2": {"molecular_target": "HDAC2 (Homo sapiens, UniProt Q92769)", "sequence (Q92769 whole entry)": "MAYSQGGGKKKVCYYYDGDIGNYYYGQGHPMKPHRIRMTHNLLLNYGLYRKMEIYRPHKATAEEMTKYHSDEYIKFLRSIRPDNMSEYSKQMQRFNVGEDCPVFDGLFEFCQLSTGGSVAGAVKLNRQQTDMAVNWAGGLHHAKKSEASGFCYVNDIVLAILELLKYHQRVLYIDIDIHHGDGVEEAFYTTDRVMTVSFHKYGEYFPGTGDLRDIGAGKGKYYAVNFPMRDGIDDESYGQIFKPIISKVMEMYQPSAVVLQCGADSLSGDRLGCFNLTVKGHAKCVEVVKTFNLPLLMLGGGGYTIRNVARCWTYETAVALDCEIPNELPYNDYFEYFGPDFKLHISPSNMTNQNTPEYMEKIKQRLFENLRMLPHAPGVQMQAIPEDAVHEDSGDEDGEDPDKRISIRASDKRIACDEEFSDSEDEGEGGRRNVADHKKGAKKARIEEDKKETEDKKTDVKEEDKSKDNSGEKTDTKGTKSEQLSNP", "conditions": "both methods (SICFA and PISA10)"}, "HDAC6": {"molecular_target": "T2, HDAC6 (Homo sapiens, UniProt Q9UBN7)", "T2 sequence (Q9UBN7 1-1215)": "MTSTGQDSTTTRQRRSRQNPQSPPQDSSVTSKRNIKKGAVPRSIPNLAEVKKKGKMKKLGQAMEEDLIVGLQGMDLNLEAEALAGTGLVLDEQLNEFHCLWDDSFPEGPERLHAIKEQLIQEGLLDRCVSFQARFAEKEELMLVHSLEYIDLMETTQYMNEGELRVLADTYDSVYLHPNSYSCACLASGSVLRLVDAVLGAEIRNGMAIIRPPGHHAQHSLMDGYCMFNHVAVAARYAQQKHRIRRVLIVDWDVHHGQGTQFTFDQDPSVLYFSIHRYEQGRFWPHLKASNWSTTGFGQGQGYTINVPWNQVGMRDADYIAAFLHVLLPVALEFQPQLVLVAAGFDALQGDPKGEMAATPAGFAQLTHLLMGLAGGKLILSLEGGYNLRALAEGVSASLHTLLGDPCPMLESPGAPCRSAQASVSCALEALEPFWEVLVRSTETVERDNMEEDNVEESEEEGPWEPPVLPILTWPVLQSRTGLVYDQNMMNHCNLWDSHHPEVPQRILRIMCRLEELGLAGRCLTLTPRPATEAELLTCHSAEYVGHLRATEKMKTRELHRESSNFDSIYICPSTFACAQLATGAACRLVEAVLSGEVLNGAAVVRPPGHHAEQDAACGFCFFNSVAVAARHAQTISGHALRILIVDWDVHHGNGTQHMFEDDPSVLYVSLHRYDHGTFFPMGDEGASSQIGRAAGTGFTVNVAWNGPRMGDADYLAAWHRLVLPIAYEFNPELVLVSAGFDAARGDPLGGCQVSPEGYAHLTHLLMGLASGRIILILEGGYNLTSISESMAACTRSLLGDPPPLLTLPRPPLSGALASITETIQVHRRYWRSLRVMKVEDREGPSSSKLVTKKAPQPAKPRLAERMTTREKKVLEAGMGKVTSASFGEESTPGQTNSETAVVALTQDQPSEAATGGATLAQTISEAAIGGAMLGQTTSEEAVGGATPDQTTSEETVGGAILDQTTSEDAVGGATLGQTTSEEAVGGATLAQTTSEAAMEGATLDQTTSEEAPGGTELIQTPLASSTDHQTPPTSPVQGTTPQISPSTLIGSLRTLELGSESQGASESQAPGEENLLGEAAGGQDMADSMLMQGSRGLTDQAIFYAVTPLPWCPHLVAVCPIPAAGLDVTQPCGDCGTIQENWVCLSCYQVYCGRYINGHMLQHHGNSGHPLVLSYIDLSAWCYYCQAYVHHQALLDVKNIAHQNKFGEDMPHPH", "assay": "SICFA and PISA10 stability shift, Panobinostat", "conditions": "both methods (SICFA and PISA10)"}, "HDAC3": {"molecular_target": "HDAC3 (Homo sapiens, UniProt O15379)", "sequence (O15379 whole entry)": "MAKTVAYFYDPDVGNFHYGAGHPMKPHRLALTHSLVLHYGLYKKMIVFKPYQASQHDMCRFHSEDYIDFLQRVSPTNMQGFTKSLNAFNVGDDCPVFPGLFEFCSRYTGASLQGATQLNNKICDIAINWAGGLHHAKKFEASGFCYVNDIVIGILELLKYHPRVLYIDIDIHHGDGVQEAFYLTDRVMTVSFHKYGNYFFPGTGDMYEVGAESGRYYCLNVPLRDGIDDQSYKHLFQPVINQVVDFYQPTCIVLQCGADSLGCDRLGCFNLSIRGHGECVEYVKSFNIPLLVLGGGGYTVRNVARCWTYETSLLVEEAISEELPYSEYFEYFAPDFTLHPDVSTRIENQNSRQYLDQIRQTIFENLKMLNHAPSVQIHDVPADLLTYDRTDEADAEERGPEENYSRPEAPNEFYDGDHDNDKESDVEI", "sequence (Q9Y618 389-480 partner limits assumed)": "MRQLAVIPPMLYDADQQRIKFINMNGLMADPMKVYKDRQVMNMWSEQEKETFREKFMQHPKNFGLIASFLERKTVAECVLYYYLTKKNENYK", "assay": "SICFA and PISA10 stability shift, Panobinostat", "conditions": "SICFA versus PISA10"}, "HDAC8": {"molecular_target": "T3, HDAC8 (Homo sapiens, UniProt Q9BY41)", "T3 sequence (Q9BY41 1-377)": "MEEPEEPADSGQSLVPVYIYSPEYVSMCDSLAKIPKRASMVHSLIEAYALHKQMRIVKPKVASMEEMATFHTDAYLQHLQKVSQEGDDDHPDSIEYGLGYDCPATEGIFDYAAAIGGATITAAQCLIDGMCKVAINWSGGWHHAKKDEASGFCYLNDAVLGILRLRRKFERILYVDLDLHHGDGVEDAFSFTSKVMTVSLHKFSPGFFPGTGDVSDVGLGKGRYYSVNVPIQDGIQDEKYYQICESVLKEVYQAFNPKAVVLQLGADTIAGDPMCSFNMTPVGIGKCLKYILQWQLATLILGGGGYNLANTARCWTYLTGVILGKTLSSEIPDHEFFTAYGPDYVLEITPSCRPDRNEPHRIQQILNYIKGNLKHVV", "assay": "SICFA and PISA10 stability shift, Panobinostat", "conditions": "SICFA versus PISA10"}, "RB1": {"tested_on": "RB1", "assay": "SICFA stability shift, SNS-032"}, "CDKN1C": {"tested_on": "CDKN1C", "assay": "SICFA target identification, dasatinib", "assay_type": "cell-based, Human", "conditions": "dasatinib 1 μM, 30 min"}, "LYN": {"tested_on": "LYN", "conditions": "1 µM dasatinib, cell lysate, kinobeads ref 26; cited from earlier work"}, "YES1": {"tested_on": "YES1", "conditions": "1 µM dasatinib, cell lysate, kinobeads ref 26; cited from earlier work"}, "RIPK2": {"tested_on": "RIPK2", "conditions": "1 µM dasatinib, cell lysate, kinobeads ref 26; cited from earlier work"}, "TYMS [5]": {"molecular_target": "T1, TYMS", "conditions": "raltitrexed 1 µM, 30 min"}},
  "data": [
    {"smiles": "O=c1[nH]cc(F)c(=O)[nH]1", "note": "[5-FU, 5-Fluorouracil]", "values": [
      {"measurement": "changes in RNA (tRNA) modifications", "setting": "tRNA modifications; 4 h", "result": "no significant changes"},
      {"measurement": "tRNA modifications Ψ, ncm5U, hm5C, m5U", "setting": "tRNA modifications; 24 h", "result": "significantly downregulated"},
      {"measurement": "stability of RNA post-transcriptional modification enzymes", "setting": "[1]", "result": "significantly increased"},
      {"measurement": "TYMS stability, log2FC", "setting": "TYMS [2]", "result": 2.11}
    ]},
    {"smiles": "CN(Cc1cnc2nc(N)nc(N)c2n1)c1ccc(C(=O)N[C@@H](CCC(=O)O)C(=O)O)cc1", "note": "[MTX, Methotrexate]", "values": [
      {"measurement": "MTR stability, log2FC", "setting": "[3]", "result": "−0.38"},
      {"measurement": "MTHFD1 stability", "setting": "[4]", "result": "increased stability"}
    ]},
    {"smiles": "Cc1[nH]c2ccccc2c1CCNCc1ccc(/C=C/C(=O)NO)cc1", "note": "[Panobinostat]", "values": [
      {"measurement": "HDAC2 stability", "setting": "HDAC2", "result": "consistent stabilization"},
      {"measurement": "HDAC6 stability", "setting": "HDAC6", "result": "consistent stabilization"},
      {"measurement": "HDAC3 stability", "setting": "HDAC3", "result": "opposite trends"},
      {"measurement": "HDAC8 target identification", "setting": "HDAC8", "result": "uniquely identified by SICFA"}
    ]},
    {"smiles": "CC(C)(C)c1cnc(CSc2cnc(NC(=O)C3CCNCC3)s2)o1", "note": "[SNS-032]", "values": [
      {"measurement": "stability shift of substrate RB1, log2FC", "setting": "RB1", "result": "> 0.5"}
    ]},
    {"smiles": "Cc1nc(Nc2ncc(C(=O)Nc3c(C)cccc3Cl)s2)cc(N2CCN(CCO)CC2)n1", "note": "[dasatinib, Dasatinib]", "values": [
      {"measurement": "stability of LYN's interacting partner CDKN1C", "setting": "CDKN1C", "result": "reduced the stability"},
      {"measurement": "reduction in binding", "setting": "LYN", "result": "more than 50%"},
      {"measurement": "reduction in binding", "setting": "YES1", "result": "more than 50%"},
      {"measurement": "reduction in binding", "setting": "RIPK2", "result": "more than 50%"}
    ]},
    {"smiles": "Cc1nc2ccc(CN(C)c3ccc(C(=O)N[C@@H](CCC(=O)O)C(=O)O)s3)cc2c(=O)[nH]1", "note": "[raltitrexed, Raltitrexed]", "values": [
      {"measurement": "soluble TYMS content vs control (western blot)", "setting": "TYMS [5]; Jurkat cells, 10% and 12% fixative", "result": "markedly higher"},
      {"measurement": "target identification by SICFA LC-MS/MS", "setting": "TYMS [5]; 10% fixative, pool of 5,534 proteins", "result": "leading candidate target"}
    ]}
  ]
}
